Activity calls are given as the source filed them. No cut-off for these calls is given here.
How the values were obtained:
[1] = target: T1, Matrix metalloproteinase-9 (Homo sapiens, UniProt P14780); test: Reduction of MMP9 activity in TNF-alpha/IL1-beta-stimulated human Caco-2 cells at 50 uM treated 1 hr before stimulation by zymography; format: cell-based
[2] = target: T1, Matrix metalloproteinase-9; test: Reduction of MMP9 activity in TNF-alpha/IL1-beta-stimulated human Caco-2 cells treated 1 hr before stimulation by zymography; format: cell-based

T1 sequence (P14780 whole entry): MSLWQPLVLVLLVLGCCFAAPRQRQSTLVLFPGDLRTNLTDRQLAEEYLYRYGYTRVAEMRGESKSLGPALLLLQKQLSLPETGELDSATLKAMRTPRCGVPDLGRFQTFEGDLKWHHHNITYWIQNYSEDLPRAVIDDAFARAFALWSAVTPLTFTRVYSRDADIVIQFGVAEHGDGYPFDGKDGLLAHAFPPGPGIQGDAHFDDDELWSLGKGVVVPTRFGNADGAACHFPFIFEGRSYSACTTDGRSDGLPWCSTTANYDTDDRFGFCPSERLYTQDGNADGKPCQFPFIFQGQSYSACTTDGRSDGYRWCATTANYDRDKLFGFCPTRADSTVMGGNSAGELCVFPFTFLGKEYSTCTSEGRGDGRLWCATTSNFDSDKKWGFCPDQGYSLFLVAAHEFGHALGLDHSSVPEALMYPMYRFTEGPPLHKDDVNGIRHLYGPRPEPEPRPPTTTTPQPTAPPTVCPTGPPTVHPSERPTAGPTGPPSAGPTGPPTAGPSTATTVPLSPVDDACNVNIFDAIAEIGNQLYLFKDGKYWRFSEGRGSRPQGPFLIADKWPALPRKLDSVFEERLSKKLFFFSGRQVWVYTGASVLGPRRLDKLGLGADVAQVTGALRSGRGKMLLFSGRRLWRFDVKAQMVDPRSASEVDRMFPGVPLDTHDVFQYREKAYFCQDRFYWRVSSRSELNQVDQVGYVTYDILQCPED

COc1cc(/C=C/c2cc(/C=C/c3ccc(O)c(OC)c3)[nH]n2)ccc1O [CURCUMIN PYRAZOLE]
Activity [1]: Active | IC50 [2]: 19.4 µM

COc1cc(/C=C/C(=O)CC(=O)/C=C/c2ccc(O)c(OC)c2)ccc1O [CURCUMIN]
IC50 [2]: 8.5 µM

COc1cc(/C=C/c2cc(C)[nH]n2)ccc1O
Activity [1]: Active | IC50 [2]: 17.6 µM

COc1cc(/C=C/c2n[nH]c(C)c2C)ccc1O
Activity [1]: Active | IC50 [2]: 8 µM

Reference: ChEMBL document CHEMBL1143360, “Synthesis and biological evaluation of curcuminoid pyrazoles as new therapeutic agents in inflammatory bowel disease: effect on matrix metalloproteinases” (Bioorg Med Chem, 2009)
